Reference: publication PMC10146186, “Modulation of the Cytotoxic Properties of Pd(II) Complexes Based on Functionalized Carboxamides Featuring Labile Phosphoryl Coordination Sites” (Pharmaceutics, 2023)

How the values were obtained:
[1] = tested on: AMO1 multiple plasmacytoma cells; assay: MTT cytotoxicity assay, AMO1; format: cell-based, human; settings: AMO1, MTT, 48 h exposure; read-out: IC50 ± SD, AMO1
Method: (§1) To characterize the antitumor potential of the resulting Pd(II) pincer complexes, their cytotoxicities against a panel of human solid and hematopoietic cancer cell lines, including colorectal carcinoma (HCT116), breast cancer (MCF7), prostate adenocarcinoma (PC3), glioblastoma (U251), ovarian adenocarcinoma (Scov3), chronic myelogenous leukemia (K562) and its resistant subclone (K562/iS9), multiple plasmacytoma (AMO1), and acute lymphoblastic leukemia (H9) cell lineages, were evaluated using the conventional MTT assay. […] For comparison, the inhibitory effects of the compounds explored on noncancerous human embryonic kidney cells HEK293 as well as transformed breast cells HBL100 and their doxorubicin-resistant analogs HBL100/Dox were also investigated under the same conditions.
(§2) The cytotoxic activity of the compounds explored was investigated on human colorectal carcinoma (HCT116), breast cancer (MCF7), prostate adenocarcinoma (PC3), glioblastoma (U251), ovarian adenocarcinoma (Scov3), chronic myelogenous leukemia (K562 and K562/iS9), multiple plasmacytoma (AMO1), and acute lymphoblastic leukemia (H9) cell lines, as well as human embryonic kidney (HEK293) and mammary epithelial (HBL100 and HBL100/Dox) cells used as representatives of pseudonormal cells. All cell lines were obtained from American Type Culture Collection (ATCC). RPMI-1640 and DMEM media were obtained from Gibco. Fetal bovine serum (FBS) was purchased from HyClone. Cells were cultured in RPMI-1640 or DMEM media supplemented with 10% FBS and 50 μg/mL gentamicin in a humidified incubator with 5% CO2 atmosphere. The cell growth inhibitory effects of the compounds were evaluated using the conventional MTT assay (ICN Biomedicals, Eschwege, Germany). Cells were seeded in triplicate at a cell density of 5 × 10^3/well in 96-well plates in 100 µL complete medium and preincubated for 24 h. The tested compounds were initially dissolved in DMSO. Then, the compounds at various concentrations were added to the media. The well plates were incubated for 48 h followed by addition of MTT solution (Sigma, Darmstadt, Germany) (20 μL, 5 mg/mL). The cells were incubated at 37 °C for further 3 h; then the culture medium was removed, and formazan crystals were dissolved in DMSO (70 μL). The absorbance of the resulting solutions was measured on a multi-well plate reader (Multiskan FC, Thermo scientific) at 530 nm to determine the percentage of surviving cells. The reported values of IC50 are the averages of three independent experiments (Table 2 and Table 3). Cisplatin (in the initial form of an infusion concentrate in natural saline solution) from a commercial source was used as the reference.

MCF7 breast cancer cells = assay: MTT cytotoxicity assay, MCF7; format: cell-based, human; settings: MCF7, MTT, 48 h exposure; read-out: IC50 ± SD, MCF7
Method: as §1, §2

U251 glioblastoma cells = assay: MTT cytotoxicity assay, U251; format: cell-based, human; settings: 48 h exposure, read-out: IC50 ± SD, U251
Method: as §1, §2

[2] = UV-vis stability study in DMSO, DMSO–water and DMSO–PBS; format: physicochemical; settings: neat DMSO, DMSO–water and DMSO–PBS solutions, over 48 h
Method: The observed dependences correlate well with our previous findings on the lability of the phosphoryl sites in palladocycles 2a,b, 3a,b and can be rationalized in terms of their coordination behavior. […] However, the presence of an additional competitive chloride anion makes complex 2b potentially more susceptible to decoordination of the phosphoryl arm. […] At least the N,N-bidentately bound core remained intact in the mentioned media over a period of 48 h.
The NMR spectra were recorded on Bruker Avance 400 and Avance 500 spectrometers, and the chemical shifts (δ) were referenced internally by the residual (^1H) or deuterated (^13C) solvent signals relative to tetramethylsilane or externally to H3PO4 (^31P) or liquid ammonia (^15N). The ^15N chemical shifts were extracted from the ^1H–^15N HMBC spectra. In all cases, the ^13C{^1H} NMR spectra were registered using the JMODECHO mode; the signals for the C nuclei bearing odd and even numbers of protons had opposite polarities. The NMR peak assignments for ligand 1a and complexes 2a, 3a,b were based on the analysis of ^1H–^1H COSY, ^1H–^13C HSQC, and ^1H–^13C HMBC spectra. The results obtained were used to assign the NMR spectra of the other compounds obtained in this study. For the NMR spectra of the representative compounds, see Figures S1–S9 (1a), S11–S22 (2a), and S24–S35 (3b) in the Supporting Information. […]

[3] = tested on: HBL100 mammary epithelial cells; assay: MTT cytotoxicity assay, HBL100; format: cell-based, human; settings: 48 h exposure, read-out: IC50 ± SD, HBL100
Method: as §1, §2

[4] = tested on: Scov3 ovarian adenocarcinoma cells; assay: MTT cytotoxicity assay, Scov3; format: cell-based, human; settings: Scov3, compound concentration 80.0 μM, 48 h
Method: as §1, §2

[5] = tested on: PC3 prostate adenocarcinoma cells; assay: MTT cytotoxicity assay, PC3; format: cell-based, human; settings: 48 h exposure, read-out: IC50 ± SD, PC3
Method: as §1, §2

[6] = tested on: HEK293 embryonic kidney cells; assay: MTT cytotoxicity assay, HEK293; format: cell-based, human; settings: HEK293 noncancerous cells, 48 h exposure, read-out: IC50 ± SD, HEK293
Method: as §1, §2

[7] = tested on: HCT116 colorectal carcinoma cells; assay: MTT cytotoxicity assay, HCT116; format: cell-based, human; settings: 48 h exposure, read-out: IC50 ± SD, HCT116
Method: as §1, §2

[8] = tested on: K562/iS9 resistant chronic myelogenous leukemia cells; assay: MTT cytotoxicity assay, K562/iS9; format: cell-based, human; settings: 48 h exposure, read-out: IC50 ± SD, K562/iS9
Method: as §1, §2

[9] = tested on: HBL100/Dox doxorubicin-resistant mammary epithelial cells; assay: MTT cytotoxicity assay, HBL100/Dox; format: cell-based, human; settings: MTT, 48 h exposure, read-out: IC50 ± SD, HBL100/Dox
Method: as §1, §2

[10] = tested on: K562 chronic myelogenous leukemia cells; assay: MTT cytotoxicity assay, K562; format: cell-based, human; settings: 48 h exposure, read-out: IC50 ± SD, K562
Method: as §1, §2

[11] = tested on: H9 acute lymphoblastic leukemia cells; assay: MTT cytotoxicity assay, H9; format: cell-based, human; settings: 48 h exposure, read-out: IC50 ± SD, H9
Method: as §1
as §2, with “Then, the compounds at various concentrations were added to the media. The well plates were incubated for 48 h followed by addition of MTT solution (Sigma, Darmstadt, Germany) (20 μL, 5 mg/mL). The cells were incubated at 37 °C for further 3 h; then the culture medium was removed, and formazan crystals were dissolved in DMSO (70 μL).” left out, “The reported values of IC50 are the averages of three independent experiments (Table 2 and Table 3). Cisplatin (in the initial form of an infusion concentrate in natural saline solution) from a commercial source was used as the reference.” left out

stability by UV-vis spectroscopy [2]: high stability
Structure (SMILES): O=C(c1ccccn1)[N](CP(=O)(c1ccccc1)c1ccccc1)[Pd][Cl] [complex 3a, [κ^3-O,N,N-(L)Pd(II)Cl]]
IC50 [1]: 32 ± 2 µM
IC50 (MCF7 breast cancer cells): 45 ± 5 µM
IC50 (U251 glioblastoma cells): > 80 µM
IC50 [3]: > 80 µM
percentage of live cells [4]: 30% ^5
IC50 [5]: 26 ± 6 µM
IC50 [6]: 34 ± 3 µM
IC50 [7]: 36 ± 2 µM
IC50 [8]: 40 ± 4.5 µM
IC50 [9]: > 80 µM
IC50 [10]: 36 ± 4 µM
IC50 [11]: 23 ± 1 µM
